The source of these data is patent US20230340364A1, “Fabric Softening Compositions” (Colgate-Palmolive Company, priority 2020, published 2023).

The nature of the data set: Dispersibility of the preservative into the finished product. Type of data set: physicochemical. The note with it: preservative post-added (IPBC 0.2%, DGH 0.1%). How it is done: For 90 kg batch, initial 20% of water is heated to 47.7° C., the agitation is set to 32.5 Hz, then color (1 min of agitation), lactic acid (1 min of agitation), etidronic acid (1 min of agitation) and PQ7 (3 min of agitation) is added. Afterward, the pre-heated esterquat at 60-65° C. is added for 10 seconds and mixture for 5 min. After esterquat addition, the 75% of the remaining water (15° C.) is added and mixed for 5 min more. The final composition is completed with the addition of the rest of the components keeping the agitation at 35 Hz; thickener (10 min of agitation), blend of slurry fragrance capsules (water/capsules; 10:1) (5 min of agitation) and oil perfume (10 min of agitation). For the reference sample, 5% of additional water is post-added to the mixture (5 min of agitation). In the case of the control sample, 0.02% of DPIII is post added with the remaining water to cover the % of hole (5 min of agitation). For the alternative test compositions with IPBC, IPBC is post-added at 0.2% as is. […]
The negative control, positive control, Test composition 1, and Test composition 2, described in Table 1 of Example 1 are first evaluated for their dispersibility into the product and their impact on the viscosity, pH and stability (predictive methods). […] No significant difference in viscosity, pH and stability are identified for all the evaluated samples.

On to `CCCCCCCCCCCCNC(=N)N.Cl` [DGH, Dodecylguanidinee Hydrochloride], for which the “dispersibility by being directly post-added into the finished product” value was “acceptable dispersibility”.

For `CCCCNC(=O)OCC#CI` [IPBC, 3-iodo-2-propynyl butylcarbamate], the “dispersibility by being directly post-added into the finished product” value is “acceptable dispersibility”.
